Holding throughout (test): DTP human tumour cell line panel, 48 h
Assay [1] has as its system BT-549 breast.
Assay [2] concerns EKVX NSCLC.
Assay [3] has as its system SK-MEL-2 melanoma.
The subject of assay [4] is SF-268 CNS.
Assay [5] concerns DU-145 prostate.
Assay [6] deals with SK-OV-3 ovarian.
Assay [7] deals with MDA-MB-231 breast.
In assay [8] the test system is MOLT-4 leukemia.
Assay [9] has as its system KM12 colon.
Assay [10] relates to HL-60(TB) leukemia.

In PubChem BioAssay (NCI) one finds TGI and GI50 data, which are given here for 15 compounds.

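Where inhibition never reached the appropriate level, the endpoint shown equals the highest concentration tested. Otherwise, values were interpolated linearly from a five-concentration, 48-hour dose response in 96-well plates. Abbreviation: GI50, concentration required for 50% inhibition of growth. TGI: concentration producing complete growth inhibition.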 Where only a bound is given, the exact number is not on record here.

For orientation: TGI means the concentration at which net growth stops. A lower TGI goes with more potent growth arrest. Turning to `CN(C)N1C(=O)c2ccccc2NC1c1ccccc1` (centres undefined), the TGI in assay [1], in [2], in assay [3], in [4], in assay [5] and in [6] was more than 100 µM throughout. Moreover, the TGI in [7], in [8] and in assay [9] was more than 100 µM throughout.

By GI50 is commonly meant the concentration at which growth is held to half of that of the control. Turning to `O=C(c1ccc2ncc(-c3nc(NC4CC4)ncc3F)n2c1)N1CCOCC1`, the GI50 is 1.58 µM in assay [1]; 1.97 µM in [10]; 2.85 µM in assay [2]; 1.66 µM in [3]; 2.53 µM in assay [4]; 2.68 µM in assay [5]. Moreover, the GI50 was 2.4 µM in [7], 2.48 µM in assay [8] and 2.28 µM in assay [9]. Besides, the concentration for total growth inhibition (TGI) in assay [1] was 5.29 µM; in assay [10], 5.15 µM; in assay [2], 71.7 µM; in [3] it was 3.81 µM; in assay [4] it was 7.12 µM; in assay [5], more than 100 µM. In addition, the values for the TGI in [7], in assay [8] and in assay [9] were 8.98 µM, 7.1 µM and 11.8 µM, respectively.

With `N=C(N=C(N)N)N1CCN(c2ccncc2)CC1`, the GI50 in assay [1], in assay [10], in assay [3], in assay [4], in assay [5] and in [6] was more than 1000 µM each time. Also, the GI50 in assay [7], in assay [8] and in assay [9] was more than 1000 µM in each case. In addition, the TGI in assay [1], in assay [10], in assay [3], in assay [4], in assay [5] and in assay [6] was more than 1000 µM throughout. Besides, the TGI in assay [7], in assay [8] and in assay [9] was more than 1000 µM in each case.

For the compound `Cn1c(=O)c(Oc2ccccc2F)cc2cnc(NC3CCOCC3)nc21`, the GI50 in assay [1], in assay [10], in [3], in [4], in assay [5] and in assay [6] was more than 25 µM each time. The GI50 in assay [7], in assay [8] and in assay [9] was more than 25 µM throughout. Moreover, the concentration for total growth inhibition (TGI) in assay [1], in assay [10], in assay [3], in assay [4], in [5] and in [6] was more than 25 µM in each case. Further, the total growth inhibition concentration (TGI) in assay [7], in assay [8] and in assay [9] was more than 25 µM each time.

With `NC1CCN(c2nc(Nc3cccc(C(F)(F)F)c3)c3c(=O)[nH]ccc3n2)CC1`, the GI50 in [1] is 1.59 µM; in assay [10], 0.603 µM; in [2] it was 1.35 µM; in assay [6], 1.08 µM; in assay [7], 2 µM; in [8], 1.05 µM. Besides, the TGI in assay [1] is 3 µM; in [10], 2.41 µM; in [2] it was 3.16 µM; in [6] it was 2.39 µM; in assay [7], 3.6 µM; in assay [8] it was 4.8 µM.

On to `Cn1ncc2c(N)nc(N3CCCCC3)nc21`, for which the GI50 in assay [1] was 31.9 µM; in assay [10], 36 µM; in [2], 91.2 µM; in assay [3], 23 µM; in [4] it was 29.6 µM; in [5], 19.2 µM. Further, the GI50 in assay [6] was 22.5 µM; in assay [9] it was 26.2 µM. The TGI in assay [1] was more than 100 µM; in assay [10], more than 100 µM; in assay [2], more than 100 µM; in assay [3], 71.6 µM; in [4], 69.2 µM; in [5], 74.7 µM. Also, the TGI in [6] is more than 100 µM; in [9], 82.8 µM.

As for `ClC(Cl)c1nc(-c2cccnc2)n2nc(-c3ccccc3)cc2n1`, the GI50 is 2.18 µM in assay [10]; 2.32 µM in [2]; 2.28 µM in [4]; 0.554 µM in [5]; 1.78 µM in assay [6]; 1.98 µM in assay [7]. Also, the GI50 in [8] was 0.984 µM. Further, the total growth inhibition concentration (TGI) amounted to 7.19 µM in assay [10]; 6.21 µM in assay [2]; 5.76 µM in assay [4]; 3.14 µM in assay [5]; 5.02 µM in assay [6]; 5.07 µM in assay [7]. For the same compound, the TGI in assay [8] was more than 100 µM.

Consider `O=[N+]([O-])c1ccc(N/N=C/c2c(O)ccc3ccccc23)nc1`, for which the GI50 is 39.8 µM in assay [1]; 6.5 µM in assay [2]; more than 100 µM in assay [3]; 4 µM in [4]; 6.77 µM in assay [5]; more than 100 µM in assay [6]. In addition, the GI50 in assay [7] was 15.9 µM; in [8] it was 1.62 µM; in [9], 8.73 µM. Moreover, the TGI in assay [1], in assay [2], in assay [3], in assay [4], in [5] and in assay [6] was more than 100 µM each time. Besides, the TGI in assay [7], in assay [8] and in assay [9] was more than 100 µM throughout.

`Nc1nnc2cc(Cl)ccc2n1`: the GI50 in assay [2] is 23.6 µM; in [4] it was more than 100 µM; in [5], more than 100 µM; in assay [6] it was more than 100 µM; in assay [7], more than 100 µM; in [8] it was more than 100 µM. Moreover, the GI50 in assay [9] was more than 100 µM. In addition, the TGI in assay [2], in assay [4], in assay [5], in assay [6], in [7] and in assay [8] was more than 100 µM throughout. In [9], this compound showed a TGI of more than 100 µM.

Turning to `Cc1cc(C)c(C[N+](C)(C)C)c(C)c1C`, the GI50 is 0.619 µM in assay [1]; 0.496 µM in assay [10]; 0.654 µM in assay [3]; 0.364 µM in [4]; 0.347 µM in [5]; 0.499 µM in assay [6]. In addition, the GI50 in [7] was 0.471 µM; in assay [8] it was 0.349 µM; in assay [9] it was 0.33 µM. In addition, the TGI in assay [1] is 7.36 µM; in [10], more than 24.7 µM; in assay [3], 5.04 µM; in assay [4], 10 µM; in [5], 11.4 µM; in [6], 11.2 µM. The concentration for total growth inhibition (TGI) was 25.8 µM in assay [7], more than 52.9 µM in assay [8] and 24.2 µM in assay [9].

Consider `CCOC(=O)c1[nH]c(-c2ccc(Cl)cc2)cc1-c1cccnc1`, for which the 50% growth inhibitory concentration (GI50) was 0.27 µM in assay [1]; 1.35 µM in assay [2]; 2.36 µM in assay [4]; 1.88 µM in assay [5]; 1.05 µM in [6]; 1.67 µM in assay [7]. The GI50 in [8] was 0.683 µM; in assay [9] it was 0.595 µM. Moreover, the total growth inhibition concentration (TGI) in [1] was 1.46 µM; in assay [2], more than 100 µM; in [4] it was more than 100 µM; in assay [5], more than 100 µM; in [6], more than 100 µM; in assay [7] it was more than 100 µM. Further, the concentration for total growth inhibition (TGI) in assay [8] and in assay [9] was more than 100 µM in each case.

Turning to `COC1CC2C=C(C)/C=C/C=C/C(=O)NC(c3ccccc3)C/C=C/CCC(O)CC(=O)C2=C1O` (centres undefined), the concentration for 50% growth inhibition (GI50) was 0.261 µM in [1]; 0.153 µM in assay [10]; 0.223 µM in assay [3]; 0.365 µM in [4]; 0.405 µM in assay [5]; 0.369 µM in assay [6]. The GI50 is 0.27 µM in assay [7], 0.364 µM in assay [8] and 0.332 µM in assay [9]. Also, the TGI in assay [1] was 1.17 µM; in assay [10] it was 0.406 µM; in [3], 0.6 µM; in assay [4], 1.51 µM; in assay [5] it was 1.57 µM; in assay [6], 1.46 µM. The figures for the total growth inhibition concentration (TGI) in assay [7], in [8] and in assay [9] were 0.961 µM, 1.4 µM and 1.26 µM, respectively.

In the case of `CCOC(=O)C(CO)c1nc2c([nH]c1=O)c(=O)n(C)c(=O)n2C` (centres undefined), the TGI in [1], in assay [10], in assay [2], in assay [3], in assay [4] and in assay [5] was more than 100 µM throughout. Moreover, the concentration for total growth inhibition (TGI) in assay [7] and in [9] was more than 100 µM in each case.

As for `C1CSCCCSCCSCCCSC1`, the TGI in assay [1], in [2], in assay [3], in assay [4], in [5] and in assay [6] was more than 100 µM each time. For the same compound, the TGI in assay [7] and in assay [8] was more than 100 µM each time.

For the compound `O=c1[nH]c(=O)n(C2OC(CO)C(O)C2O)c2c1CCCC2` (centres undefined), the TGI in assay [10], in assay [2], in assay [3], in assay [4], in assay [5] and in [6] was more than 100 µM each time. The concentration for total growth inhibition (TGI) in assay [7], in assay [8] and in assay [9] was more than 100 µM throughout.
